We go through 87 molecules from ChEMBL document CHEMBL1157539, “Thousands of chemical starting points for antimalarial lead identification” (Nature, 2010).

The experiment has as its system Plasmodium falciparum. The experiment in a line: GSK_TCMDC: Inhibition of Plasmodium falciparum 3D7 in whole erythrocytes, using parasite LDH activity as an index of growth. To be noted: Plasmodium falciparum, 3D7. The class given is functional, organism-based.
`O=[N+]([O-])c1cc(/C=N/Nc2nc3nonc3nc2Nc2ccc(F)cc2)c(Cl)cc1Cl` registered an XC50 of 759 nM. The molecule `Cc1cc(F)ccc1[C@H]1CNCCN1C(=O)N(C)[C@@H](C)c1cc(C(F)(F)F)cc(C(F)(F)F)c1` displayed an XC50 of 232 nM. `Cc1cccc2nc(-c3ccc(-c4cccc(CN5CCCC(O)C5)c4)s3)[nH]c12` (configuration not stated) had an XC50 of 942 nM. In turn, `N#Cc1ccc(-n2cc(C(=O)Nc3ccc4c(c3)CCN(C3CCC3)CC4)c(C(F)(F)F)n2)cc1` registered an XC50 of 290 nM. `Cc1cc(Nc2ncc3c(n2)N(C2CCC2)CC3)ccc1N1CCN(C)CC1`: the XC50 was determined as 1190 nM. `COc1cc(/C=C/C(=O)NCC(CCNc2cc(=O)c3ccccc3[nH]2)NCc2cc(Br)cc(Br)c2)cc(OC)c1` (configuration not stated) displayed an XC50 of 915 nM.

`Cc1ccc(NC(=O)NC2CCN(c3ccnc4ccccc34)C2)cc1` (configuration not stated): the XC50 was 709 nM. The same measure for `COc1ccc(-c2nc(NC(=O)CS(=O)(=O)c3ccc(F)cc3)sc2C)cc1`: 243 nM; for `COc1cccc(CC(=O)N2CCC(n3c(C)nc4ccc(C)cc43)CC2)c1`: 114 nM; for `CC1(C)CCCN(C(=O)Cc2ccc3c(c2)CCCC3)C1CN1CC=CC1` (configuration not stated): 720 nM. On to `Nc1ncc(-c2cn[nH]c2)cc1-c1nc2cc(Cl)cnc2[nH]1`, for which the XC50 turned out to be 915 nM.

With `Cc1cc(=NN=Cc2ccccn2)c2cc(F)ccc2[nH]1`, the XC50 came out at 761 nM. With `Cc1oc(-c2ccc(Cl)cc2)cc1C(=O)NCCC1CCN(CCCCCNC(=O)/C=C/c2ccc(Cl)c(Cl)c2)CC1` the figure was 446 nM.

As for `Cn1nccc1C(=O)NCCNCc1cccc(-c2csc(-c3nc4ccccc4[nH]3)c2)c1`, the XC50 is 840 nM. Take `CC(C)CCn1c(Sc2ccc(C#N)c([N+](=O)[O-])c2)nnc1-c1ccc(Cl)cc1`: the XC50 came out at 875 nM. With `Nc1cccc(-c2ccc3ccnc(N)c3c2)c1` the figure was 796 nM; with `CCc1nc(N)nc(N)c1-c1ccc(C(C)C)cc1`, 834 nM.

For the molecule `CCCNc1nc(Nc2ccccc2C)nc2ccccc12`, the XC50 came to 887 nM. With `CCOc1cc(Br)c(C(C)NC(=O)c2ccccc2)cc1OCC` (configuration not stated) the figure was 861 nM; with `CCOc1c(OC)ccc2c1CCN(CCN1CCC(CNC(=O)c3ccc(-c4ccc(C#N)cc4)cc3)CC1)C2`, 1080 nM; with `COc1ccc(Cl)cc1NC(=O)Nc1ccc2c(c1)CCN(C1CCC1)CC2`, 814 nM. With `C=CCc1cc(Br)ccc1OCCCON1C(N)=NC(N)=NC1(C)C` the figure was 3.2 nM; with `NCc1ccc(CNCc2cccc(-c3ccc(-c4nc5ccccc5[nH]4)cc3)c2)cc1`, 717 nM; with `Cc1cccc(C(=O)NC(NC(=S)Nc2cc(Cl)ccc2Cl)C(Cl)(Cl)Cl)c1` (configuration not stated), 1270 nM. Molecule `Fc1cccc(Cn2ncc3cc(Nc4ncnc5sc(C#Cc6ncc[nH]6)cc45)ccc32)c1` showed an XC50 of 1800 nM. `CN(C)c1ccc(-c2ccc(C(=O)NC3CCN(Cc4ccccc4F)CC3)s2)cc1` displayed an XC50 of 1400 nM.

For the molecule `Cc1cccn2c(=O)c3cc(C(=O)NC4CCCCC4)c(=N)n(CCCn4ccnc4)c3nc12`, the XC50 was found to be 753 nM. The same measure for `CCOC(=O)c1c(CNc2ccncc2)n(C)c2cc(Br)c(OC(C)=O)cc12`: 370 nM; for `N#Cc1ccc(N[C@@H](CC2CCCCC2)C(=O)Nc2ccc(-c3ccccc3)cc2)c2ccccc12`: 597 nM. With `O=C(NC1CCN(c2ncc(C(F)(F)F)cc2Cl)CC1)c1cccs1` the figure was 897 nM.

The molecule `O=C(c1cccs1)N(Cc1cccc(-c2ccc(CNC3CCCC3)cc2)c1)C1CCN(Cc2ccccc2)CC1` yielded an XC50 of 1130 nM. The same measure for `CC(=O)c1ccc(NC(=O)Nc2ccc(N(C)c3ccnc(NC4CC4)n3)cc2)cc1`: 805 nM; for `CCN1CCC(N2CCC(n3c(C)nc4cc(C(F)(F)F)ccc43)CC2)CC1`: 1020 nM; for `CC[C@H]1CN2CCc3cc(OC)c(OC)cc3[C@@H]2C[C@@H]1CC1=NCCc2c1[nH]c1ccc(OCc3ccccc3)cc21`: 772 nM. The same measure for `O=C(CC1CCCC1)N(Cc1ccc(-c2ccc(CNC3Cc4ccccc4C3)cc2)cc1)CC1CCCCN1` (configuration not stated): 1060 nM; for `O=C(NOCc1ccccc1)c1cc(Cl)ccc1O`: 1100 nM. The same measure for `Cc1cc(N[C@@H](Cc2ccccc2)C(=O)NCCCOC(C)C)nc(NCCc2ccc(F)cc2)n1`: 934 nM; for `COc1cc(NCC2(CNCc3cn(Cc4ccccc4)c4ccccc34)CCCCC2)nc2ccccc12`: 946 nM. `COc1ccc(C=NN=c2c3ccccc3[nH]c3ccccc23)c2ccccc12` had an XC50 of 1130 nM.

Molecule `CC(C)NCc1cccc(-c2ccc(-c3nc4ccccc4[nH]3)cc2)c1` came in with an XC50 of 761 nM.

As for `CN(C)CC1c2[nH]c3ccccc3c2CCN1C(=O)Nc1ccc(Cl)c(Cl)c1` (configuration not stated), the XC50 was found to be 1210 nM.

`COc1cccc(C2CCN(CCN3CCC(CNC(=O)c4ccc(-c5ccc(C(F)(F)F)cc5)cc4)CC3)CC2)c1` showed an XC50 of 886 nM.

Regarding `Cc1cc(N[C@@H](C)C(=O)Nc2ccccc2)nc(NCCc2ccc(F)cc2)n1`, the XC50 came to 1110 nM.

`Cc1cccc(CN2CCCN(Cc3ccc(C(=O)Nc4ccc(C(C)(C)C)cc4)cc3)CC2)c1` had an XC50 of 727 nM.

`Cc1cc2ccc(/C=C/C(=O)NC3CCC(CCN4CCc5ccc(C#N)cc5CC4)CC3)cc2[nH]1` (configuration not stated) returned an XC50 of 941 nM. Molecule `CC(C)(Oc1c(C2CCN(CCCCNC(=O)c3ccc(-c4ccc(C#N)cc4)cc3)CC2)ccc2c1CCCC2)C(N)=O` had an XC50 of 696 nM. With `COc1ccccc1CC1CCCN(C2CCC(NC(=O)c3cc4ccccc4[nH]3)CC2)C1` (configuration not stated) the figure was 842 nM; with `COc1cccc2c(NCc3ccccc3)nc(NCCCN3CCCCC3C)nc12` (configuration not stated), 911 nM; with `CC(CCNc1c2ccccc2nc2ccccc12)N1CCN(C)CC1` (configuration not stated), 803 nM. With `Cc1noc(C)c1-c1cccc(CNCc2ccc(-c3cccc(-c4nc5cc(C(F)(F)F)ccc5[nH]4)c3)cc2)c1` the figure was 556 nM.

`COc1cccc2cc(C(=O)N[C@@H](CC(C)C)C(=O)NC3CC[C@@H](C)N(C(=O)Nc4ccncc4)CC3=O)oc12` (some centres not stated) had an XC50 of 292 nM.

In turn, `CC1=NN(c2ccc(C)c(C)c2)C(=O)C1=NNc1cccc(-c2cccc(NC(=O)OC(C)(C)C)c2)c1O` yielded an XC50 of 695 nM.

As to `NC(=O)c1cccc(C(=O)Nc2cccc(-c3cccc(-c4nc5cc(F)ccc5[nH]4)c3)c2)c1`, the XC50 is 249 nM. The molecule `O=C(Nc1ccc(C(F)(F)F)cc1)NC1CCN(CCCCCNC(=O)C2CC2c2ccc(Cl)c(Cl)c2)CC1` (configuration not stated) gave an XC50 of 626 nM. As for `COc1ccc2[nH]c(/C=C/c3cccc4ccc(C)nc34)nc2c1`, the XC50 was determined as 792 nM. Regarding `CN1CCC(NCc2cccc(-c3ccc(S(=O)(=O)NCCN4CCCC4)s3)c2)CC1`, the XC50 turned out to be 928 nM. With `COc1ccccc1-c1cccc(Nc2c(Nc3ccc(Cl)cc3)c(=O)c2=O)c1` the figure was 878 nM; with `c1ccc(CNc2cc(-c3ccccn3)nc(-c3ccccn3)n2)cc1`, 302 nM. Molecule `CS(=O)(=O)n1c(CN2CCN(c3ncc(C(F)(F)F)cc3Cl)CC2)nc2ccccc21` gave an XC50 of 1060 nM.

As to `CNC(=O)NC1CCN(Cc2c(-c3cccs3)nc3ccccc3c2C(=O)N[C@@H](C)C2CCCCC2)CC1`, the XC50 was 219 nM. Turning to `COC(=O)C(NC(=O)c1ccc(-c2ccc(-c3nc4ccccc4[nH]3)s2)cc1)c1ccc(O)cc1` (configuration not stated), the XC50 turned out to be 738 nM.

With `Cc1ccccc1C1CCN(C2CCC(NC(=O)/C=C/c3ccc4c(c3)OC(F)(F)O4)CC2)CC1` (configuration not stated), the XC50 was determined as 666 nM. With `Cc1cccc2nc(-c3ccc(-c4ccc(NC(=O)CN5CCN(C)CC5)cc4)s3)[nH]c12` the figure was 1020 nM.

The molecule `Cc1nnc2c(NC(=O)NC3CCCC3)cc3ccc(-c4cccc(CN5CCN(C)CC5)c4)cc3n12` displayed an XC50 of 917 nM. As for `O=c1cc(NCCCNC2CCCc3c2ccc2ccccc32)[nH]c2ccccc12` (configuration not stated), the XC50 was 824 nM. The molecule `CN1CCc2cc(O)c(NS(=O)(=O)c3ccc(-c4ccc(Cl)cc4)cc3)cc2CC1` showed an XC50 of 767 nM.

In turn, `COc1ccc(CNC(=O)NC2CCN(c3ccnc(Nc4ccc(F)cc4)n3)C2)cc1` (configuration not stated) displayed an XC50 of 842 nM. With `CN(C)c1cc(NC(=O)Nc2ccc(SC(F)(F)F)cc2)c2ccccc2n1` the figure was 140 nM; with `Nc1nc(N)c2c(ccc3c2ccn3C2C=CCCC2)n1` (configuration not stated), 132 nM; with `COc1ccc(CCNCC(O)c2cccc(Br)c2)c(Cl)c1OC` (configuration not stated), 1040 nM. Molecule `CN1CCN(CCCN(Cc2cccc(-c3cccc(CNC4CCCC4)c3)c2)C(=O)/C=C/c2ccccc2)CC1` gave an XC50 of 777 nM. As to `CCOc1cc(C(=O)NCCCN2CCCCC2C)ccc1-c1nc2cc(Cl)ccc2[nH]1` (configuration not stated), the XC50 was determined as 1070 nM.

`CC(C)(C)CNCC(C)(C)c1nc(-c2ccc(Cl)c(O)c2)c(-c2ccncc2)[nH]1` showed an XC50 of 601 nM. With `CN(C)CCNCc1ccc(-c2ccc3c(Nc4ccc(F)cc4Cl)ccnc3c2)o1` the figure was 145 nM; with `Cc1ncccc1C(=O)Nc1cccc(-c2cccc(-c3nc4cccc(C)c4[nH]3)c2)c1`, 956 nM; with `CCCCc1cc(NCc2ccncc2)nc(Nc2cccc(OC)c2)n1`, 742 nM. For `COc1ccc2nccc(N3CCC(SCCNCc4ccc5c(n4)NC(=O)CS5)C3)c2n1` (configuration not stated), the XC50 turned out to be 253 nM. In turn, `NC(=O)c1cc2nc(Nc3ccc(F)cc3)nc(Nc3ccc(S(N)(=O)=O)cc3)c2[nH]1` came in with an XC50 of 795 nM. With `CCCC(C)Nc1nc(C)cc(N[C@@H](CC(C)C)C(=O)NCc2ccc(C)cc2)n1` (some centres not stated) the figure was 1010 nM; with `CN(CCCN(C)c1cc(NC(=O)c2ccc(F)cc2)ccn1)Cc1cccc(F)c1`, 1220 nM. With `CN(C)CCNc1ncnc2c1[nH]c1ccc(Br)cc12` the figure was 742 nM; with `COC(=O)C(Cc1ccccc1)NC(=O)NC1CCN(c2ccnc(Nc3ccc(F)cc3)n2)C1` (configuration not stated), 1090 nM. For the molecule `N=C(N)NC(=O)Nc1cc(Cl)c(Cl)c(Br)c1`, the XC50 was 611 nM. The same measure for `Fc1ccc(C=NN=c2cc[nH]c3ccc(C(F)(F)F)cc23)cc1`: 1100 nM; for `CC(C)(CN)c1nc(-c2ccc(Cl)c(O)c2)c(-c2ccncc2)[nH]1`: 756 nM; for `COc1ccc(-c2ccc(NC(=O)c3ccc(C#N)cc3)cc2)cc1CNC(C)C`: 529 nM. `C(=C(c1cccs1)c1cccs1)c1ccc(CNC2CCN(Cc3ccccc3)CC2)cc1`: the XC50 worked out at 161 nM.
